Data from US20150105252A1, “SUBSTITUTED PYRAZOLES AS HERBICIDES” (E I DU PONT DE NEMOURS AND COMPANY, priority 2013, published 2015).

Columns and labels:
crabgrass, large = assay: Test A preemergence; assay type: in vivo, Digitaria sanguinalis; settings: preemergence; for Crabgrass, Large plant response rating (0 to 100 scale): 125 g ai/ha, visual injury approx. 10 days after treatment; for Crabgrass, Large plant response rating: 500 g ai/ha, visual injury after approx. 10 days, 0 to 100 scale (0 no effect, 100 complete control)
Summary of the method: (§1)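 Scoring was visual, on a scale where 100 means complete control and 0 means no effect, comparing treated with untreated plants around 10 days post-application. Compounds in surfactant-containing non-phytotoxic solvent were sprayed onto soil preemergence or onto one- to two-leaf seedlings (2–10 cm) postemergence.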

morningglory [1] = assay: Test A preemergence; assay type: in vivo, Ipomoea spp.; settings: preemergence; for Morningglory plant response rating (0 to 100 scale): 125 g ai/ha, visual injury approx. 10 days after treatment
Summary of the method: as §1

velvetleaf = assay: Test A preemergence; assay type: in vivo, Abutilon theophrasti; settings: preemergence; for Velvetleaf plant response rating (0 to 100 scale): 125 g ai/ha, visual injury approx. 10 days after treatment
Summary of the method: as §1

corn [2] = assay: Test A preemergence; assay type: in vivo, Zea mays; settings: preemergence; for Corn plant response rating (0 to 100 scale): 125 g ai/ha, visual injury approx. 10 days after treatment; for Corn plant response rating: 500 g ai/ha, visual injury after approx. 10 days, 0 to 100 scale (0 no effect, 100 complete control)
Summary of the method: as §1

foxtail, giant = assay: Test A postemergence; assay type: in vivo, Setaria faberii
Summary of the method: as §1

sedge, umbrella = assay: Test B flood; assay type: in vivo, Cyperus difformis; settings: 250 g ai/ha, visual rating on 0 to 100 scale (0 no effect, 100 complete control), 13 to 15 days
Summary of the method: (§2)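 Plants were grown to the 2-leaf stage, then pots were flooded to 3 cm above the soil and compounds were applied directly into the paddy water. Water depth was held for the whole test; after 13 to 15 days in a greenhouse, injury was visually rated against untreated controls (0 = no effect, 100 = complete control).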

ducksalad = assay: Test B flood; assay type: in vivo, Heteranthera limosa; settings: 250 g ai/ha, visual rating on 0 to 100 scale (0 no effect, 100 complete control), 13 to 15 days
Summary of the method: as §2

barnyardgrass = assay: Test B flood; assay type: in vivo, Echinochloa crus-galli; settings: 250 g ai/ha, visual rating on 0 to 100 scale (0 no effect, 100 complete control), 13 to 15 days
Summary of the method: as §2

ryegrass, Italian = assay: Test C preemergence; assay type: in vivo, Lolium multiflorum
Summary of the method: (§3)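 Seeds were sown in a loam soil–sand blend and sprayed preemergence with compounds formulated in a non-phytotoxic solvent mixture containing surfactant. Postemergence plants, grown in peat/vermiculite medium to 2–18 cm (1- to 4-leaf stage), received the same formulation. After 13 to 15 days in a greenhouse, injury was rated visually against controls (0 = no effect, 100 = complete control).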

galium = assay: Test C postemergence; assay type: in vivo, Galium aparine; settings: for Plant response rating (scale of 0 to 100 where 0 is no effect and 100 is complete control), Galium: Postemergence, 31 g ai/ha, visually evaluated after 13 to 15 days; for Galium plant response rating / Plant response rating, Galium: postemergence; for Galium plant response rating: 62 g ai/ha, scale 0 to 100
Summary of the method: as §3

corn [3] = assay: Test C postemergence; assay type: in vivo, Zea mays; settings: for Plant response rating (scale of 0 to 100 where 0 is no effect and 100 is complete control), Corn: Postemergence, 31 g ai/ha, visually evaluated after 13 to 15 days; for Corn plant response rating / Plant response rating, Corn: postemergence; for Corn plant response rating: 62 g ai/ha, scale 0 to 100
Summary of the method: as §3

morningglory [4] = assay: Test C postemergence; assay type: in vivo, Ipomoea coccinea; settings: for Plant response rating (scale of 0 to 100 where 0 is no effect and 100 is complete control), Morningglory: Postemergence, 31 g ai/ha, visually evaluated after 13 to 15 days; for Morningglory plant response rating / Plant response rating, Morningglory: postemergence; for Morningglory plant response rating: 62 g ai/ha, scale 0 to 100
Summary of the method: as §3

pigweed = assay: Test C postemergence; assay type: in vivo, Amaranthus retroflexus; settings: postemergence; for Pigweed plant response rating: 62 g ai/ha, scale 0 to 100
Summary of the method: as §3

ragweed = assay: Test C postemergence; assay type: in vivo, Ambrosia elation; settings: postemergence
Summary of the method: as §3

waterhemp = assay: Test C postemergence; assay type: in vivo, Amaranthus rudis; settings: postemergence; for Plant response rating, Waterhemp: 250 g ai/ha, scale 0 to 100 (0 no effect, 100 complete control); for Waterhemp plant response rating: scale 0 to 100
Summary of the method: as §3

[5] = 500 g ai/ha, visual injury after approx. 10 days, 0 to 100 scale (0 no effect, 100 complete control)
[6] = Postemergence, 500 g ai/ha, 0 to 100 scale (0 no effect, 100 complete control)
[7] = preemergence, 31 g ai/ha, visual rating, scale 0 to 100 (0 no effect, 100 complete control), 13 to 15 days
[8] = preemergence, 62 g ai/ha, scale 0 to 100 (0 no effect, 100 complete control), 13 to 15 days
[9] = preemergence, 125 g ai/ha, 13 to 15 days, scale 0 to 100, 0 = no effect, 100 = complete control
[10] = preemergence, 250 g ai/ha, scale 0 to 100, 0 is no effect, 100 is complete control
[11] = 250 g ai/ha, scale 0 to 100 (0 no effect, 100 complete control)
[12] = 125 g ai/ha, scale 0 to 100, 0 no effect, 100 complete control
[13] = Postemergence, 125 g ai/ha, 0 to 100 scale, 0 no effect, 100 complete control

SMILES: CCCc1cc(C(=O)NC2CC2)nn1Cc1cc(C(F)(F)F)nn1C [Compound 202]
- Crabgrass, Large plant response rating (0 to 100 scale) (crabgrass, large): 100
- Crabgrass, Large plant response rating (crabgrass, large): 100
- Morningglory plant response rating (0 to 100 scale) (morningglory [1]): 100
- Morningglory plant response rating (morningglory [1]; [5]): 100
- Velvetleaf plant response rating (0 to 100 scale) (velvetleaf): 30
- Velvetleaf plant response rating (velvetleaf; [5]): 100
- Corn plant response rating (0 to 100 scale) (corn [2]): 10
- Corn plant response rating (corn [2]): 40
- Foxtail, Giant plant response rating (foxtail, giant; [6]): 90
- Foxtail, Giant plant response rating (foxtail, giant; postemergence, 125 g ai/ha, about 10 days, visual rating on 0 to 100 scale (0 no effect, 100 complete control)): 90
- Plant response rating, Sedge, Umbrella (sedge, umbrella): 80
- Plant response rating, Ducksalad (ducksalad): 95
- Plant response rating, Barnyardgrass (barnyardgrass): 30
- Ryegrass, Italian plant response rating (ryegrass, Italian; [7]): 5
- Ryegrass, Italian plant response rating (ryegrass, Italian; [8]): 50
- Plant response rating, Ryegrass, Italian (ryegrass, Italian; [9]): 90
- Ryegrass, Italian plant response rating (ryegrass, Italian; [10]): 90
- Plant response rating (scale of 0 to 100 where 0 is no effect and 100 is complete control), Galium (galium): 65
- Galium plant response rating (galium): 85
- Plant response rating, Galium (galium; [11]): 95
- Plant response rating, Galium (galium; [12]): 90
- Plant response rating (scale of 0 to 100 where 0 is no effect and 100 is complete control), Corn (corn [3]): 5
- Corn plant response rating (corn [3]): 10
- Plant response rating, Corn (corn [3]; [11]): 25
- Plant response rating, Corn (corn [3]; [12]): 15
- Plant response rating (scale of 0 to 100 where 0 is no effect and 100 is complete control), Morningglory (morningglory [4]): 35
- Morningglory plant response rating (morningglory [4]): 40
- Plant response rating, Morningglory (morningglory [4]; [11]): 98
- Plant response rating, Morningglory (morningglory [4]; [12]): 90
- Pigweed plant response rating (pigweed): 80
- Plant response rating, Pigweed (pigweed; [11]): 95
- Plant response rating, Pigweed (pigweed; [12]): 90
- Plant response rating, Ragweed (ragweed; [11]): 80
- Plant response rating, Ragweed (ragweed; [12]): 65
- Plant response rating, Waterhemp (waterhemp): 90
- Waterhemp plant response rating (waterhemp): 85

SMILES: CCc1cc(C(=O)NCC(F)(F)F)nn1Cc1ccnc(SC(F)(F)F)c1 [Compound 214]
- Crabgrass, Large plant response rating (0 to 100 scale) (crabgrass, large): 100
- Crabgrass, Large plant response rating (crabgrass, large): 100
- Morningglory plant response rating (0 to 100 scale) (morningglory [1]): 80
- Velvetleaf plant response rating (0 to 100 scale) (velvetleaf): 100
- Corn plant response rating (0 to 100 scale) (corn [2]): 10
- Corn plant response rating (corn [2]): 90
- Foxtail, Giant plant response rating (foxtail, giant; [13]): 100
- Foxtail, Giant plant response rating (foxtail, giant; [6]): 100
- Plant response rating, Sedge, Umbrella (sedge, umbrella): 95
- Plant response rating, Ducksalad (ducksalad): 90
- Plant response rating, Barnyardgrass (barnyardgrass): 50
- Ryegrass, Italian plant response rating (ryegrass, Italian; [7]): 5
- Ryegrass, Italian plant response rating (ryegrass, Italian; [8]): 30
- Plant response rating, Ryegrass, Italian (ryegrass, Italian; [9]): 70
- Ryegrass, Italian plant response rating (ryegrass, Italian; [10]): 80
- Plant response rating (scale of 0 to 100 where 0 is no effect and 100 is complete control), Galium (galium): 75
- Galium plant response rating (galium): 70
- Plant response rating, Galium (galium; [11]): 90
- Plant response rating, Galium (galium; [12]): 60
- Plant response rating (scale of 0 to 100 where 0 is no effect and 100 is complete control), Corn (corn [3]): 0
- Corn plant response rating (corn [3]): 5
- Plant response rating, Corn (corn [3]; [11]): 10
- Plant response rating, Corn (corn [3]; [12]): 5
- Plant response rating (scale of 0 to 100 where 0 is no effect and 100 is complete control), Morningglory (morningglory [4]): 75
- Morningglory plant response rating (morningglory [4]): 95
- Plant response rating, Morningglory (morningglory [4]; [11]): 85
- Plant response rating, Morningglory (morningglory [4]; [12]): 85
- Pigweed plant response rating (pigweed): 60
- Plant response rating, Pigweed (pigweed; [11]): 85
- Plant response rating, Pigweed (pigweed; [12]): 75
- Plant response rating, Ragweed (ragweed; [11]): 70
- Plant response rating, Ragweed (ragweed; [12]): 35
- Plant response rating, Waterhemp (waterhemp): 70
- Waterhemp plant response rating (waterhemp): 60

SMILES: CCc1cc(C(=O)NCC(F)(F)F)nn1Cc1ccnc(Br)c1 [Compound 224]
- Crabgrass, Large plant response rating (0 to 100 scale) (crabgrass, large): 100
- Crabgrass, Large plant response rating (crabgrass, large): 100
- Morningglory plant response rating (0 to 100 scale) (morningglory [1]): 30
- Velvetleaf plant response rating (0 to 100 scale) (velvetleaf): 100
- Corn plant response rating (0 to 100 scale) (corn [2]): 30
- Corn plant response rating (corn [2]): 90
- Foxtail, Giant plant response rating (foxtail, giant; [13]): 90
- Foxtail, Giant plant response rating (foxtail, giant; [6]): 100
- Plant response rating, Sedge, Umbrella (sedge, umbrella): 90
- Plant response rating, Ducksalad (ducksalad): 75
- Plant response rating, Barnyardgrass (barnyardgrass): 20
- Plant response rating, Ryegrass, Italian (ryegrass, Italian; Preemergence, rate head not shown (block before 16 g ai/ha), scale 0 to 100): 10
- Ryegrass, Italian plant response rating (ryegrass, Italian; [8]): 60
- Plant response rating, Ryegrass, Italian (ryegrass, Italian; [9]): 50
- Ryegrass, Italian plant response rating (ryegrass, Italian; [10]): 30
- Plant response rating (scale of 0 to 100 where 0 is no effect and 100 is complete control), Galium (galium): 50
- Galium plant response rating (galium): 55
- Plant response rating, Galium (galium; [11]): 90
- Plant response rating, Galium (galium; [12]): 40
- Plant response rating (scale of 0 to 100 where 0 is no effect and 100 is complete control), Corn (corn [3]): 5
- Corn plant response rating (corn [3]): 5
- Plant response rating, Corn (corn [3]; [11]): 10
- Plant response rating, Corn (corn [3]; [12]): 10
- Plant response rating (scale of 0 to 100 where 0 is no effect and 100 is complete control), Morningglory (morningglory [4]): 25
- Morningglory plant response rating (morningglory [4]): 20
- Plant response rating, Morningglory (morningglory [4]; [11]): 65
- Plant response rating, Morningglory (morningglory [4]; [12]): 25
- Pigweed plant response rating (pigweed): 50
- Plant response rating, Pigweed (pigweed; [11]): 75
- Plant response rating, Pigweed (pigweed; [12]): 50
- Plant response rating, Ragweed (ragweed; [11]): 35
- Plant response rating, Ragweed (ragweed; [12]): 10
- Plant response rating, Waterhemp (waterhemp): 45
- Waterhemp plant response rating (waterhemp): 50
